pIC50: −log10 of the molar value. Like-named read-outs stand apart in the source and are kept apart here.
Legend:
[1] = biological target: T1, malonyl-CoA decarboxylase prepared from rat heart (Rattus norvegicus, UniProt Q920F5); experiment: In vitro MCD inhibitory assay (spectrophotometric, 96 well); type: biochemical
T1 construct: from tissue; host or cells: rat heart
T1 sequence (Q920F5 39-492): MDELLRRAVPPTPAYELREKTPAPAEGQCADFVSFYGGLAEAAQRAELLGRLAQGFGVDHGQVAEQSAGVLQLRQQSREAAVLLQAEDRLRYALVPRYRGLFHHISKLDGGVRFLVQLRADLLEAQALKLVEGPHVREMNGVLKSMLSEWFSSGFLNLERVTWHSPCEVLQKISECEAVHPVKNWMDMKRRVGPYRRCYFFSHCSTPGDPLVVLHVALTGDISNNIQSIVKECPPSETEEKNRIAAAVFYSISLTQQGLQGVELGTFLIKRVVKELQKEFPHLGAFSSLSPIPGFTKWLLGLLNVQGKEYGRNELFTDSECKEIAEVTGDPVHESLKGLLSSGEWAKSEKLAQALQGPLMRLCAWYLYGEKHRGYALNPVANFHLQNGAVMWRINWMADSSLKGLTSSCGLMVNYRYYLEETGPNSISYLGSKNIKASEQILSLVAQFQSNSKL
Procedure: The following reagents are added into a 96 well titer plate: Tris-HCl buffer, 20 μL, DTE, 10 μL; I-malate, 20 μL; NAD, 10 μL; NADH, 25 μL; water, 80 μL; malic dehydrogenase, 5 μL. The contents are mixed and incubated for 2 min followed by the addition of 5 μL of citrate synthase.

[2] = biological target: T2, carnitine palmitoyltransferase-I (CPT-I) muscle (M) isoform (Homo sapiens, UniProt Q92523); settings: read-out: IC50 of malonyl-CoA inhibition of CPT-I; cited from earlier work
T2 sequence (Q92523 1-772): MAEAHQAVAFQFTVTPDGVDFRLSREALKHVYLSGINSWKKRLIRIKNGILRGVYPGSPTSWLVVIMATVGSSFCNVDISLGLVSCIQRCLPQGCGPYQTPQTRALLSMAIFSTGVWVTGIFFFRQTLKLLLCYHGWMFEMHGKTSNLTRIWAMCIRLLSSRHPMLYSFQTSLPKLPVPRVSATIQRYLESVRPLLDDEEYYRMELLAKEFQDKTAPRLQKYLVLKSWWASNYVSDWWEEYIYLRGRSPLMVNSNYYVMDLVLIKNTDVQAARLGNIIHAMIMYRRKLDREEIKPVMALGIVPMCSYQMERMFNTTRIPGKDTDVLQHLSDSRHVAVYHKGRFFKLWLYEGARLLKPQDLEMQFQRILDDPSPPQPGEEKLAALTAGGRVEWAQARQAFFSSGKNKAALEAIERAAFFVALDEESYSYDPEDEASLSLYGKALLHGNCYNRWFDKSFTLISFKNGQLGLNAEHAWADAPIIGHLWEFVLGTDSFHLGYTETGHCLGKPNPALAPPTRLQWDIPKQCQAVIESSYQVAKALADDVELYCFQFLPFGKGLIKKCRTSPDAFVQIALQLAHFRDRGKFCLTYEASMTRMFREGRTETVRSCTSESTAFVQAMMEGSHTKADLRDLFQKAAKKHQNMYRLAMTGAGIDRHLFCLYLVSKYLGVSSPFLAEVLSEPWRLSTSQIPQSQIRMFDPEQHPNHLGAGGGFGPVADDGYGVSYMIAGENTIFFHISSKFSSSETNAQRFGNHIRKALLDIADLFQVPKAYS

breast carcinoma cells = settings: Pizer et al.; cited from earlier work
[3] = MCD from rat heart, concentration causing 50% inhibition of MCD activity, read-out: IC50 of the MCD inhibitors

| SMILES | pIC50 [1, 3] | further results |
| --- | --- | --- |
| OC(c1ccc(N(Cc2ccc(C(F)(F)F)cc2)C(=S)N2CCOCC2)cc1)(C(F)(F)F)C(F)(F)F [Example 1, morpholine-4-carbothioic acid [4-(2,2,2-trifluoro-1-hydroxy-1-trifluoromethyl-ethyl)-phenyl]-(4-trifluoromethyl-benzyl)-amide] | 6.91 |  |
| CCCCN(C(=N)N(CC)CC)c1ccc(C(O)(C(F)(F)F)C(F)(F)F)cc1.Cl [Example 4] |  | melting point: 217.1 to 219.2 °C (dec.) |
| CC(C)(C)OC(=O)CCNC(=O)C1CC(c2ccc(C(O)(C(F)(F)F)C(F)(F)F)cc2)=NO1 (stereo not drawn) [Example 12, 1,1-dimethylethyl N-[(3-{4-[2,2,2-trifluoro-1-hydroxy-1-(trifluoromethyl)ethyl]phenyl}-4,5-dihydroisoxazol-5-yl)carbonyl]-beta-alaninate] | 6.29 |  |
| CCCCNC(=O)c1c(-c2ccccc2)nc(-c2ccc(C(O)(C(F)(F)F)C(F)(F)F)cc2)n1CCC [Example 22, N-butyl-4-phenyl-1-propyl-2-{4-[2,2,2-trifluoro-1-hydroxy-1-(trifluoromethyl)ethyl]phenyl}-1H-imidazole-5-carboxamide] | 6.45 |  |
| CCCCNC(=O)c1c(-c2ccccc2)nc(-c2ccc(C(O)(C(F)(F)F)C(F)(F)F)cc2)n1C(C)C [Example 23-11] | 7.36 |  |
| CCOP(=O)(OCC)N(CC)c1ccc(C(O)(C(F)(F)F)C(F)(F)F)cc1 [Example 28, diethyl ethyl{4-[2,2,2-trifluoro-1-hydroxyl-1-(trifluoromethyl)ethyl]phenyl}amidophosphate] |  | pIC50 [1]: 7.05 |
| CC(C)(COP(=O)(O)OP(=O)(O)OC[C@H]1O[C@@H](n2cnc3c(N)ncnc32)[C@H](O)[C@@H]1OP(=O)(O)O)[C@@H](O)C(=O)NCCC(=O)NCCSC(=O)CC(=O)O [Malonyl-CoA] |  | pIC50 [2]: 7.52 |
| CCCCCCCCCCCCCCOc1ccc(C(=O)O)o1 [TOFA, 5-(tetradecyloxy)-2-furoic acid] |  | malonyl-CoA level (breast carcinoma cells): 60 % of the control |

Second part, led by results:

| pIC50 [1, 3] | SMILES | further results |
| --- | --- | --- |
| 7.38 | N#CCCCCN(C(=S)N1CCOCC1)c1ccc(C(O)(C(F)(F)F)C(F)(F)F)cc1 [Example 2, N-(4-cyanobutyl)-N-{4-[2,2,2-trifluoro-1-hydroxy-1-(trifluoromethyl)ethyl]phenyl}morpholine-4-carbothioamide] |  |
| 6.79 | CCCCN(C(=N)N(CC)CC)c1ccc(C(O)(C(F)(F)F)C(F)(F)F)cc1.Cl [Example 4, butyl {4-[2,2,2-trifluoro-1-hydroxy-1-(trifluoromethyl)ethyl]phenyl}amino)(diethylamino)methaniminium chloride] |  |
| 7.35 | COC(=O)CCCCN(C(=S)N1CCOCC1)c1ccc(C(O)(C(F)(F)F)C(F)(F)F)cc1 [Example 5-48] |  |
| 6.83 | CCCCN(C(=S)N(CC)CC)c1ccc(C(O)(C(F)(F)F)C(F)(F)F)cc1 [Example 5-108] |  |
| 6.90 | CCCC(O)(CCC)c1ccc(C(O)(C(F)(F)F)C(F)(F)F)cc1 [Example 15] |  |

Reference: patent publication US7279477B2 (Chugai Seiyaku Kabushiki Kaisha, priority 2001, dated 2007)
